Entries after “also recorded” stand apart in the source; their conditions may differ. Read-outs that look alike come from different tables or passages of the source.

Assay [1] concerns S. aureus ATCC6538 biofilms. Briefly: Survival of S. aureus biofilm on pretreated, rinsed HA discs. The conditions noted are these: for times more active than ciprofloxacin alone in achieving complete bactericidal action: allowing for molecular mass; for ability to prevent biofilm formation on pretreated HA (in words): pretreated HA discs; for concentration that inhibited all biofilm growth: pretreated, rinsed HA discs. In kind it is cell-based, Staphylococcus aureus. On the procedure:
HA discs incubated in DMSO or phosphate buffer served as control samples. Next, discs were rinsed 3 times with sterile water. After rinsing, 2 mL of 0.5 MF of. S. aureus ATCC6538 were introduced to wells containing HA discs as a substrate for biofilm development and biofilms were formed as before.

In assay [2] the test system is biofilms of P. aeruginosa strain ATCC-15442. Briefly: Preformed biofilms on HA discs, P. aeruginosa. Type of assay: cell-based, Pseudomonas aeruginosa. The method, then:
(§1) Antimicrobial susceptibility testing of BP-ciprofloxacin against preformed biofilms of S. aureus strain ATCC-6538 and P. aeruginosa strain ATCC-15442: Strains cultured on appropriate agar plates (Columbia agar plate for S. aureus; MacConkey agar plate for P. aeruginosa) were transferred to liquid microbiological media and incubated for 24 h/37° C. under aerobic conditions. After incubation, strains were diluted to the density of 1 MF. The microbial dilutions were introduced to wells of 24-well plates containing HA discs as a substrate, or simply to polystyrene wells where the bottom surface of the wells served as the substrate for biofilm development. Strains were incubated at 37° C. for 4 hrs. Next, the microbe-containing solutions were removed from the wells. The surfaces, HA discs and polystyrene plates, were gently rinsed to leave adhered cells and to remove planktonic or loosely-bound microbes. Surfaces prepared in this manner were immersed in fresh TSB medium containing 0.24-125 mg/L of BP-ciprofloxacin conjugate. After 24 hrs of incubation at 37° C. the surfaces were rinsed using physiological saline solution and transferred to 1 mL of 0.5% saponin (Sigma-Aldrich, St Louis, MO). The surfaces were vortex-mixed vigorously for 1 minute to detach cells. Subsequently, all microbial suspensions were diluted 10 to 10^9 times. Each dilution ([…]) was cultured on the appropriate stable medium (MacConkey, Columbia for P. aeruginosa and S. aureus, respectively) and incubated at 37-C for 24 hours. After this time, the microbial colonies were counted and the number of cells forming biofilm was assessed. Results were presented as the mean number of CFU per square millimeter surface±standard error of the mean. To estimate the exact surface area of HA discs, x-ray tomographic analysis was applied. For estimation of the area of test plate bottoms, the equation for circle area: πr2 was applied.
Antimicrobial susceptibility testing of 6 against preformed biofilms of S. aureus strain ATCC-6538 and P. aeruginosa strain ATCC-15442: Strains cultured on appropriate agar plates (Columbia agar plate for S. aureus; MacConkey agar plate for P. aeruginosa) were transferred to liquid microbiological media and incubated for 24 hrs/37° C. under aerobic conditions. After incubation, strains were diluted to the density of 1 MF. The microbial dilutions were introduced to wells of 24-well plates containing HA discs as a substrate, or simply to polystyrene wells where the bottom surface of the wells served as the substrate for biofilm development. Strains were incubated at 37° C. for 4 hrs. Next, the microbe-containing solutions were removed from the wells. The surfaces, HA discs and polystyrene plates, were gently rinsed to leave adhered cells and to remove planktonic or loosely-bound microbes. […] After 24 hrs of incubation at 37° C. the surfaces were rinsed using physiological saline solution and transferred to 1 mL of 0.5% saponin (Sigma-Aldrich, St Louis, MO). The surfaces were vortex-mixed vigorously for 1 minute to detach cells. Subsequently, all microbial suspensions were diluted 10-1 to 10-9 times. Each dilution ([…]) was cultured on the appropriate stable medium (MacConkey, Columbia for P. aeruginosa and S. aureus, respectively) and incubated at 37° C. for 24 hrs. After this time, the microbial colonies were counted and the number of cells forming biofilm was assessed. Results were presented as the mean number of CFU per square millimeter surface±standard error of the mean. […]

For assay [3], the system named is biofilms of S. aureus strain ATCC-6538. In words: Preformed biofilms on HA discs, S. aureus. Type of assay: cell-based, Staphylococcus aureus. The note with it: for bactericidal activity / reduction of CFUs against established biofilm (in words): HA as substrate. On the procedure:
as §1
Antimicrobial susceptibility testing of 6 against preformed biofilms of S. aureus strain ATCC-6538 and P. aeruginosa strain ATCC-15442: Strains cultured on appropriate agar plates (Columbia agar plate for S. aureus; MacConkey agar plate for P. aeruginosa) were transferred to liquid microbiological media and incubated for 24 hrs/37° C. under aerobic conditions. After incubation, strains were diluted to the density of 1 MF. The microbial dilutions were introduced to wells of 24-well plates containing HA discs as a substrate, or simply to polystyrene wells where the bottom surface of the wells served as the substrate for biofilm development. Strains were incubated at 37° C. for 4 hrs. Next, the microbe-containing solutions were removed from the wells. The surfaces, HA discs and polystyrene plates, were gently rinsed to leave adhered cells and to remove planktonic or loosely-bound microbes. […] After 24 hrs of incubation at 37° C. the surfaces were rinsed using physiological saline solution and transferred to 1 mL of 0.5% saponin (Sigma-Aldrich, St Louis, MO). The surfaces were vortex-mixed vigorously for 1 minute to detach cells. Subsequently, all microbial suspensions were diluted 10-1 to 10-9 times. Each dilution ([…]) was cultured on the appropriate stable medium (MacConkey, Columbia for P. aeruginosa and S. aureus, respectively) and incubated at 37° C. for 24 hrs. After this time, the microbial colonies were counted and the number of cells forming biofilm was assessed. Results were presented as the mean number of CFU per square millimeter surface±standard error of the mean. To calculate the surface area of HA discs, x-ray tomographic analysis was applied. For estimation of the area of test plate bottoms, the equation for circle area: πr^2 was applied.

[4] abbreviates: 24 hrs of growth (Examples 5, 6).
[5] abbreviates: HA discs as substrate (Example 1).
Where [6] appears, read: HA discs as substrate (Example 5).

Consider `O=C(O)c1cn(C2CC2)c2cc(N3CCN(C(=O)Oc4ccc(CC(P(=O)(O)O)P(=O)(O)O)cc4)CC3)c(F)cc2c1=O` [Compound 6, 1-cyclopropyl-7-(4-((4-(2,2-diphosphonoethyl)phenoxy)carbonyl)piperazin-1-yl)-6-fluoro-4-oxo-1,4-dihydroquinoline-3-carboxylic acid], for which the “times more active than ciprofloxacin alone in achieving complete bactericidal action” value in assay [1] and in assay [1] (listed as BP-ciprofloxacin) was 20 in each case. Besides, the “ability to prevent biofilm formation on pretreated HA (in words)” value in assay [1] is “superior antimicrobial activity”; in assay [1] (listed as BCC) it was “inhibited”. Further, the “concentration that inhibited all biofilm growth” value in assay [1] (24 hrs of growth (Example 1)) and in assay [1] (setting [4]) was 10 µg/mL each time. Also, the “concentration at which bactericidal” value in assay [2] (acidic and basic conditions (Example 1)) amounted to 50 µg/mL; in assay [2] (acidic and physiological conditions (Example 5)), 50 µg/mL. Further, in assay [2] (listed as conjugate), the “activity against P. aeruginosa biofilm (in words)” value was “improved bactericidal activity in basic conditions; also recorded: improved bactericidal activity in physiological conditions”. In addition, in assay [2] (physiological pH, also effective at acidic pH), the “concentration at which most effective” value came out at 8 µg/mL. Also, the “bactericidal activity / reduction of CFUs against established biofilm (in words)” value in assay [3] was “statistically significant (p<0.05, Kruskal-Wallis test) bactericidal activity”; in assay [3] (listed as BP-ciprofloxacin), “statistically significant bactericidal activity”; in assay [3] (listed as conjugate), “statistically significant bactericidal activity and reduction of colony forming units”. Further, the MBIC50 came out at 8 µg/mL in assay [3] (setting [5]) and 16 µg/mL in assay [3] (setting [6]). Also, the MBIC90 in assay [3] (setting [5]) came out at 50 µg/mL; in assay [3] (setting [6]) it was 100 µg/mL.
`O=C(O)c1cn(C2CC2)c2cc(N3CCNCC3)c(F)cc2c1=O` [ciprofloxacin, reference compound]: the “concentration that inhibited all biofilm growth” value in assay [1] (24 hrs of growth (Example 1)) and in assay [1] (setting [4]) was 100 µg/mL in each case. The “activity against P. aeruginosa biofilm (in words)” value in assay [2] is “no inhibitory or bactericidal activity; also recorded: inactive under either acidic or physiological conditions”. Also, in assay [3], the “bactericidal activity / reduction of CFUs against established biofilm (in words)” value is given as “statistically significant bactericidal activity”. Also, the MBIC90 in assay [3] (setting [5]) and in assay [3] (setting [6]) was 8 µg/mL each time.

Source of the values: patent US12624057B2, “Bisphosphonate quinolone conjugates and uses thereof” (BIOVINC, LLC, priority 2016, dated 2026).
